Experiment: Geldanamycin cytotoxicity
Assay type: cell-based

Question: For `COC1=C2C[C@@H](C)C[C@H](OC)[C@H](O)[C@@H](C)/C=C(\C)[C@H](OC(N)=O)[C@@H](OC)/C=C\C=C(/C)C(=O)NC(=CC1=O)C2=O` [Geldanamycin], which cytotoxicity is on record?
Answer: The cytotoxicity was “primarily the result of GA cytotoxicity”.
